Measured values reported in patent publication EP4610269A1, “UROKINASE PLASMINOGEN ACTIVATOR SURFACE RECEPTOR (UPAR) LIGANDS FOR DIAGNOSTIC OR THERAPEUTIC USE” (3B Pharmaceuticals GmbH, priority 2024, dated 2025).
Where two headings read alike, the source gives them in different places. Where a SMILES comes first, the peptide text is derived from it. Bridges are numbered along the chain shown (N, C = ends). [ ]: non-standard residue; d: D form. The star is where a group is joined. DOTA = O=C(O)CN1CCN(CC(=O)O)CCN(CC(=O)*)CCN(CC(=O)O)CC1; X8 = O=C(CN(CC(=O)NC(CO)(CO)CO)CC(=O)*)NC(CO)(CO)CO; Phe(2,4-Cl2) = N[C@@H](Cc1ccc(Cl)cc1Cl)C(=O)O; Pro(4R-NH2) = N[C@H]1CN[C@H](C(=O)O)C1; Hyp = O=C(O)[C@@H]1C[C@@H](O)CN1; tBuAla = CC(C)(C)C[C@H](N)C(=O)O; αMeF = C[C@](N)(Cc1ccccc1)C(=O)O; Gly(cBu) = N[C@H](C(=O)O)C1CCC1; LaDOTA = La(III) DOTA conjugate; Pentanoyl(4-Me) = CC(C)CCC(=O)*; Cit = NC(=O)NCCC[C@H](N)C(=O)O; Butoxycarbonyl = CCCCOC(=O)*; Pen = CC(C)(S)[C@H](N)C(=O)O; Phg = N[C@H](C(=O)O)c1ccccc1; Orn = NCCC[C@H](N)C(=O)O; Nva = CCC[C@H](N)C(=O)O; Hexanoyl = CCCCCC(=O)*; Pentanoyl = CCCCC(=O)*; Aib = CC(C)(N)C(=O)O; Ava = NCCCCC(=O)O

What was measured:
[1] = target: T1, uPAR-expressing HEC-265 human endometrial adenocarcinoma cells (Homo sapiens, UniProt Q03405); test: Competitive FACS binding assay; settings: pIC50 category of FACS binding
T1 construct: Cell surface uPAR-expressing HEC-265 human endometrial adenocarcinoma cells; host or cells: HEC-265
Summary of the method: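 Competitive displacement of a 10 nM biotinylated peptide from HEC-265 cells (1 h, 4 °C, PBS/1% BSA), detected via APC-streptavidin by flow cytometry. pIC50 from four-parameter logistic fit of median fluorescence versus concentration.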

human uPAR (uPAR-Fc) = target: T2, human uPAR (uPAR-Fc) (Homo sapiens, UniProt Q03405); test: Surface plasmon resonance (SPR) assay, single cycle kinetics; type: binding; settings: pKD category for uPAR SPR activity assay, uPAR-Fc on Protein A-Chip, 25°C; for Kd: read-out: pKD CAT (converted)
T2 construct: comprising amino acids Leu23-Arg303 according to UniProt entry Q03405.1; purchased R&D Systems 10378-UK-100
Summary of the method: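 uPAR-Fc (Leu23-Arg303 extracellular domains, human IgG1 Fc) captured on Protein A chip to ~2000 RU; single-cycle kinetics at 25°C in HEPES running buffer pH 7.4 with 0.1% DMSO. KD from double-referenced sensorgrams fitted to 1:1 Langmuir model, reported as pKD.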

T1 sequence (Q03405 23-335): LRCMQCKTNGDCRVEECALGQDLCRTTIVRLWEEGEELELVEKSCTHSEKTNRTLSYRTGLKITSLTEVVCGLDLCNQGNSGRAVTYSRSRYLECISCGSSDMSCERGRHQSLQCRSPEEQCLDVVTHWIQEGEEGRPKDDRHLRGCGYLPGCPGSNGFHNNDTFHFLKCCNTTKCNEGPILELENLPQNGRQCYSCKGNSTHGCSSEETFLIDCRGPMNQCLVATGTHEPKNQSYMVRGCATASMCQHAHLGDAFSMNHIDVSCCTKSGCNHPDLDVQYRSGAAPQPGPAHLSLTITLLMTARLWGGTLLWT
T2 sequence (Q03405 23-303): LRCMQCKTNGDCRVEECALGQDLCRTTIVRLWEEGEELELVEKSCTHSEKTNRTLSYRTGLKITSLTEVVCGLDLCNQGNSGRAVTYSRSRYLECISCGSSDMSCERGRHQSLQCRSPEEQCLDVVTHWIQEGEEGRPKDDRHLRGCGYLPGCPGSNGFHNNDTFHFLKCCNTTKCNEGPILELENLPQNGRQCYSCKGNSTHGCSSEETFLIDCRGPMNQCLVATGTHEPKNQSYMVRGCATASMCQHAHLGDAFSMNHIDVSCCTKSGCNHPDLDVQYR

IC50 [1] | Kd (human uPAR (uPAR-Fc)) | pIC50 CAT [1] | pKD CAT (human uPAR (uPAR-Fc)) | Kd (human uPAR (uPAR-Fc); single cycle kinetics) | Molecule
≤ 0.01 µM | 0.00158 to 0.01 µM | – | – | – | CCCCC(=O)N[C@H]1CSSC(C)(C)[C@@H](C(N)=O)NC(=O)[C@H](CCC)NC(=O)[C@H]([C@@H](C)CC)NC(=O)[C@@H]2C[C@@H](O)CN2C(=O)[C@@H]2CCCN2C(=O)[C@H](Cc2ccccc2)NC(=O)[C@H](Cc2ccc(O)cc2)NC(=O)[C@H](CCC(N)=O)NC(=O)[C@H](CCCNC(N)=O)NC1=O [UPAR-217, Pent-[Cys-Cit-Gln-Tyr-Phe-Pro-Hyp-Ile-Nva-Pen]-NH2] (Pentanoyl-C[Cit]QYFP[Hyp]I[Nva][Pen]-NH2; disulfide 1-10)
– | – | A (pIC50 values ≥8.0) | A (pKD values ≥ 8.8) | – | Pent-[Cys-Cit-Lys(LaDOTA)-Tyr-Phe-Pro-Aib-Ile-Nva-Cys]-NH2 (Pentanoyl-C[Cit]K(LaDOTA)YFP[Aib]I[Nva]C-NH2; disulfide 1-10; not fully specified; also: La(III) complexed by DOTA) [UPAR-279]
0.0398 to 0.1 µM | – | – | – | 0.01 to 0.1 µM | CCCCC(=O)N[C@H]1CSSC[C@@H](C(N)=O)NC(=O)[C@H](CCC)NC(=O)[C@H]([C@@H](C)CC)NC(=O)[C@@H]2C[C@@H](O)CN2C(=O)[C@@H]2CCCN2C(=O)[C@H](Cc2ccccc2)NC(=O)[C@H](CCCCN)NC(=O)[C@H](CCC(N)=O)NC(=O)[C@H](CCCNC(=N)N)NC1=O [UPAR-442, Pent-[Cys-Arg-Gln-Lys-Phe-Pro-Hyp-Ile-Nva-Cys]-NH2] (Pentanoyl-CRQKFP[Hyp]I[Nva]C-NH2; disulfide 1-10)
≤ 0.01 µM | < 0.00158 µM | – | – | – | CC[C@H](C)[C@@H]1NC(=O)[C@@H]2C[C@@H](N)CN2C(=O)[C@@H]2CCCN2C(=O)[C@H](Cc2ccccc2)NC(=O)[C@H](Cc2ccc(O)cc2)NC(=O)[C@H](CCC(N)=O)NC(=O)[C@H](CCCNC(N)=O)NC(=O)[C@@H](NC(=O)CCC(C)C)CSSC[C@@H](C(N)=O)NC(=O)[C@H](CC(C)C)NC1=O [UPAR-295, iHex-[Cys-Cit-Gln-Tyr-Phe-Pro-Tap-Ile-Leu-Cys]-NH2] ({Pentanoyl(4-Me)}-C[Cit]QYFP[Pro(4R-NH2)]ILC-NH2; disulfide 1-10)
≤ 0.01 µM | – | – | – | < 0.00158 µM | CCCCC(=O)N[C@H]1CSSC[C@@H](C(N)=O)NC(=O)[C@H](CCC)NC(=O)[C@H](CC(C)(C)C)NC(=O)[C@@H]2C[C@@H](O)CN2C(=O)[C@@H]2CCCN2C(=O)[C@H](Cc2ccccc2)NC(=O)[C@H](Cc2ccc(O)cc2)NC(=O)[C@H](CCC(N)=O)NC(=O)[C@H](CCCNC(=N)N)NC1=O [UPAR-370, Pent-[Cys-Arg-Gln-Tyr-Phe-Pro-Hyp-Npg-Nva-Cys]-NH2] (Pentanoyl-CRQYFP[Hyp][tBuAla][Nva]C-NH2; disulfide 1-10)
≤ 0.01 µM | – | – | – | < 0.00158 µM | CCCCC(=O)N[C@H]1CSSC[C@@H](C(N)=O)NC(=O)[C@H](C2CCC2)NC(=O)[C@H]([C@@H](C)CC)NC(=O)[C@@H]2C[C@@H](O)CN2C(=O)[C@@H]2CCCN2C(=O)[C@H](Cc2ccccc2)NC(=O)[C@H](Cc2ccc(O)cc2)NC(=O)[C@H](CCC(N)=O)NC(=O)[C@H](CCCNC(=N)N)NC1=O [UPAR-411, Pent-[Cys-Arg-Gln-Tyr-Phe-Pro-Hyp-Ile-Cbg-Cys]-NH2] (Pentanoyl-CRQYFP[Hyp]I[Gly(cBu)]C-NH2; disulfide 1-10)
≤ 0.01 µM | < 0.00158 µM | – | – | – | CCCCCC(=O)N[C@H](C(=O)N[C@@H](CC(C)C)C(=O)N[C@H]1CSSC[C@@H](C(N)=O)NC(=O)[C@H](CC(C)C)NC(=O)[C@H]([C@@H](C)CC)NC(=O)[C@H](C)NC(=O)[C@@H]2CCCN2C(=O)[C@H](Cc2ccccc2)NC(=O)[C@H](Cc2ccc(O)cc2)NC(=O)[C@H](CC(C)C)NC(=O)[C@H](CC(=O)O)NC1=O)[C@@H](C)O [UPAR-318, Hex-Thr-Leu-[Cys-Asp-Leu-Tyr-Phe-Pro-Ala-Ile-Leu-Cys]-NH2] (Hexanoyl-TLCDLYFPAILC-NH2; disulfide 3-12)
≤ 0.01 µM | < 0.00158 µM | – | – | – | CCCCC(=O)N[C@H]1CSSC[C@@H](C(N)=O)NC(=O)[C@H](CCC)NC(=O)[C@H]([C@@H](C)CC)NC(=O)[C@H](CO)NC(=O)[C@@H]2CCCN2C(=O)[C@H](Cc2ccccc2)NC(=O)[C@H](Cc2ccc(O)cc2)NC(=O)[C@H](CCC(N)=O)NC(=O)[C@H](CCCNC(=N)N)NC1=O [UPAR-154, Pent-[Cys-Arg-Gln-Tyr-Phe-Pro-Ser-Ile-Nva-Cys]-NH2] (Pentanoyl-CRQYFPSI[Nva]C-NH2; disulfide 1-10)
≤ 0.01 µM | < 0.00158 µM | – | – | – | CCCCC(=O)N[C@H]1CSSC[C@@H](C(N)=O)NC(=O)[C@H](CCC)NC(=O)[C@H]([C@@H](C)CC)NC(=O)[C@@H]2C[C@@H](O)CN2C(=O)[C@@H]2CCCN2C(=O)[C@H](Cc2ccc(Cl)cc2Cl)NC(=O)[C@H](Cc2ccc(O)cc2)NC(=O)[C@H](CCCCNC(=O)CN2CCN(CC(=O)O)CCN(CC(=O)O)CCN(CC(=O)O)CC2)NC(=O)[C@H](CCCNC(N)=O)NC1=O [UPAR-315, Pent-[Cys-Cit-Lys(DOTA)-Tyr-Egm-Pro-Hyp-Ile-Nva-Cys]-NHz] (Pentanoyl-C[Cit]K(DOTA)Y[Phe(2,4-Cl2)]P[Hyp]I[Nva]C-NH2; disulfide 1-10)
≤ 0.01 µM | < 0.00158 µM | – | – | – | CCCCC(=O)N[C@H]1CSSC[C@@H](C(N)=O)NC(=O)[C@H](CCC)NC(=O)[C@H]([C@@H](C)CC)NC(=O)[C@@H]2C[C@@H](O)CN2C(=O)[C@@H]2CCCN2C(=O)[C@H](Cc2ccccc2)NC(=O)[C@H](Cc2ccc(O)cc2)NC(=O)[C@H](CCCCNC(=O)CN2CCN(CC(=O)O)CCN(CC(=O)O)CCN(CC(=O)O)CC2)NC(=O)[C@H](CCCNC(=O)CN(CC(=O)NC(CO)(CO)CO)CC(=O)NC(CO)(CO)CO)NC1=O [UPAR-224, Pent-[Cys-Orn(Tris-Nta(Tris))-Lys(DOTA)-Tyr-Phe-Pro-Hyp-Ile-Nva-Cys]-NH2] (Pentanoyl-C[Orn](X8)K(DOTA)YFP[Hyp]I[Nva]C-NH2; disulfide 1-10)
0.0398 to 0.1 µM | – | – | – | 0.01 to 0.1 µM | CCCCC(=O)N[C@H]1CSSC[C@@H](C(N)=O)NC(=O)[C@H](CCC)NC(=O)[C@H]([C@@H](C)CC)NC(=O)[C@@H]2C[C@@H](O)CN2C(=O)[C@@H]2CCCN2C(=O)[C@H](Cc2ccccc2)NC(=O)[C@](C)(Cc2ccccc2)NC(=O)[C@H](CCC(N)=O)NC(=O)[C@H](CCCNC(=N)N)NC1=O [UPAR-478, Pent-[Cys-Arg-Gln-Amf-Phe-Pro-Hyp-Ile-Nva-Cys]-NH2] (Pentanoyl-CRQ[αMeF]FP[Hyp]I[Nva]C-NH2; disulfide 1-10)
≤ 0.01 µM | – | – | – | < 0.00158 µM | CCCCC(=O)N[C@@H]1C(=O)N[C@@H](CCCNC(N)=O)C(=O)N[C@@H](CCC(N)=O)C(=O)N[C@@H](Cc2ccc(O)cc2)C(=O)N[C@@H](Cc2ccccc2)C(=O)N2CCC[C@H]2C(=O)N2C[C@H](O)C[C@H]2C(=O)N[C@@H]([C@@H](C)CC)C(=O)N[C@@H](CCC)C(=O)N[C@H](C(N)=O)CSSC1(C)C [UPAR-397, Pent-[Pen-Cit-Gln-Tyr-Phe-Pro-Hyp-Ile-Nva-Cys]-NH2] (Pentanoyl-[Pen][Cit]QYFP[Hyp]I[Nva]C-NH2; disulfide 1-10)
≤ 0.01 µM | – | – | – | < 0.00158 µM | CC[C@H](C)[C@@H]1NC(=O)C(C)(C)NC(=O)[C@@H]2CCCN2C(=O)[C@H](Cc2ccccc2)NC(=O)[C@H](Cc2ccc(O)cc2)NC(=O)[C@H](CCCCNC(=O)CN2CCN(CC(=O)O)CCN(CC(=O)O)CCN(CC(=O)O)CC2)NC(=O)[C@H](CCCNC(N)=O)NC(=O)[C@@H](NC(=O)CCC(C)C)CSSC[C@@H](C(N)=O)NC(=O)[C@H](CC(C)C)NC1=O [UPAR-452, iHex-[Cys-Cit-Lys(DOTA)-Tyr-Phe-Pro-Aib-Ile-Leu-Cys]-NH2] ({Pentanoyl(4-Me)}-C[Cit]K(DOTA)YFP[Aib]ILC-NH2; disulfide 1-10)
≥ 0.126 µM | 0.01 to 0.1 µM | – | – | – | CCCCC(=O)N[C@H]1CSSC[C@@H](C(N)=O)NC(=O)[C@H](CCC)NC(=O)[C@H]([C@@H](C)CC)NC(=O)[C@@H]2C[C@@H](O)CN2C(=O)[C@@H]2CCCN2C(=O)[C@H](c2ccccc2)NC(=O)[C@H](Cc2ccc(O)cc2)NC(=O)[C@H](CCC(N)=O)NC(=O)[C@H](CCCNC(=N)N)NC1=O [UPAR-203, Pent-[Cys-Arg-Gln-Tyr-Phg-Pro-Hyp-Ile-Nva-Cys]-NH2] (Pentanoyl-CRQY[Phg]P[Hyp]I[Nva]C-NH2; disulfide 1-10)
≥ 0.126 µM | – | – | – | > 0.1 µM | CC[C@H](C)[C@@H]1NC(=O)[C@@H](C)NC(=O)[C@@H]2CCCN2C(=O)[C@H](Cc2ccccc2)NC(=O)[C@H](Cc2ccc(O)cc2)NC(=O)[C@H](CCC(N)=O)NC(=O)[C@H](CCCNC(N)=O)NC(=O)[C@@H](NC(=O)CCCCN)CSSC[C@@H](C(N)=O)NC(=O)[C@H](CC(C)C)NC1=O [UPAR-394, H-Ava-[Cys-Cit-Gln-Tyr-Phe-Pro-ala-Ile-Leu-Cys]-NH2] (H-[Ava]C[Cit]QYFP[dA]ILC-NH2; disulfide 2-11)

Molecule | IC50 [1] | Kd (human uPAR (uPAR-Fc)) | pIC50 CAT [1] | pKD CAT (human uPAR (uPAR-Fc)) | Kd (human uPAR (uPAR-Fc); single cycle kinetics)
CCCCOC(=O)N[C@H]1CSSC[C@@H](C(N)=O)NC(=O)[C@H](CC(C)C)NC(=O)[C@H]([C@@H](C)CC)NC(=O)[C@@H](C)NC(=O)[C@@H]2CCCN2C(=O)[C@H](Cc2ccccc2)NC(=O)[C@H](Cc2ccc(O)cc2)NC(=O)[C@H](CCC(N)=O)NC(=O)[C@H](CCCNC(N)=O)NC1=O [UPAR-155, Butoc-[Cys-Cit-Gln-Tyr-Phe-Pro-ala-Ile-Leu-Cys]-NH2] (Butoxycarbonyl-C[Cit]QYFP[dA]ILC-NH2; disulfide 1-10) | ≤ 0.01 µM | < 0.00158 µM | – | – | –
